Laboratory results from ChEMBL document CHEMBL3044784, “Molecular Basis of Resistance to s-Triazine Herbicides in Poa annua L. and Its Photosynthetic Properties under Different Light Conditions” (J Pestic Sci, 2001).
Calls of active or inactive are those of the source. The rule behind the calls is not given here.

What was measured:
Poa annua [1] = assay: Pre-emergence herbicidal activity against s-triazine-resistant Poa annua at 0.5 kg/ha after 14 days by pot test; type: functional, organism-based
Poa annua [2] = assay: Pre-emergence herbicidal activity against s-triazine-resistant Poa annua at 1 kg/ha after 14 days by pot test; type: functional, organism-based
Poa annua [3] = assay: Pre-emergence herbicidal activity against s-triazine-susceptible Poa annua at 0.5 kg/ha after 14 days by pot test; type: functional, organism-based
Poa annua [4] = assay: Herbicidal activity against hydroponic culture of s-triazine-resistant Poa annua at 1 ppm after 14 days; type: functional, organism-based
Poa annua [5] = assay: Herbicidal activity against hydroponic culture of s-triazine-susceptible Poa annua at 100 ppm after 14 days; type: functional, organism-based
Poa annua [6] = assay: Herbicidal activity against hydroponic culture of s-triazine-susceptible Poa annua at 1000 ppm after 14 days; type: functional, organism-based
Poa annua [7] = assay: Pre-emergence herbicidal activity against s-triazine-resistant Poa annua at 0.25 kg/ha after 14 days by pot test; type: functional, organism-based
Poa annua [8] = assay: Pre-emergence herbicidal activity against s-triazine-susceptible Poa annua at 1 kg/ha after 14 days by pot test; type: functional, organism-based
Poa annua [9] = assay: Pre-emergence herbicidal activity against s-triazine-resistant Poa annua at 0.05 kg/ha after 14 days by pot test; type: functional, organism-based
Poa annua [10] = assay: Herbicidal activity against hydroponic culture of s-triazine-resistant Poa annua at 0.1 ppm after 14 days; type: functional, organism-based
Poa annua [11] = assay: Pre-emergence herbicidal activity against s-triazine-resistant Poa annua at 0.10 kg/ha after 14 days by pot test; type: functional, organism-based
Poa annua [12] = assay: Herbicidal activity against hydroponic culture of s-triazine-resistant Poa annua at 1000 ppm after 14 days; type: functional, organism-based
Poa annua [13] = assay: Herbicidal activity against hydroponic culture of s-triazine-resistant Poa annua at 10 ppm after 14 days; type: functional, organism-based
Poa annua [14] = assay: Herbicidal activity against hydroponic culture of s-triazine-resistant Poa annua at 100 ppm after 14 days; type: functional, organism-based
Poa annua [15] = assay: Pre-emergence herbicidal activity against s-triazine-susceptible Poa annua at 0.05 kg/ha after 14 days by pot test; type: functional, organism-based
[16] = molecular target: Photosystem Q(B) protein (Poa annua) (UniProt Q9XQA6); assay: Resistant ratio, ratio of I50 for photosystem II in s-triazine-resistant Poa annua leaf thylakoid membrane to I50 for photosystem II in s-triazine-susceptible Poa annua leaf thylakoid membrane
Photosystem Q(B) protein [17] = molecular target: T1, Photosystem Q(B) protein (Poa annua, UniProt Q9XQA6); assay: Inhibition ofphotosystem II in s-triazine-susceptible Poa annua leaf thylakoid membrane assessed as reduction of photosynthetic electron transport; details: read-out: I50
Photosystem Q(B) protein [18] = molecular target: T1, Photosystem Q(B) protein; assay: Inhibition of photosystem II in s-triazine-resistant Poa annua leaf thylakoid membrane assessed as reduction of photosynthetic electron transport; details: read-out: I50
Poa annua [19] = assay: Herbicidal activity against hydroponic culture of s-triazine-susceptible Poa annua at 10 ppm after 14 days; type: functional, organism-based
Poa annua [20] = assay: Herbicidal activity against hydroponic culture of s-triazine-susceptible Poa annua at 0.1 ppm after 14 days; type: functional, organism-based
Poa annua [21] = assay: Herbicidal activity against hydroponic culture of s-triazine-susceptible Poa annua at 1 ppm after 14 days; type: functional, organism-based

Compound	Activity (Poa annua [1])	Activity (Poa annua [2])	Activity (Poa annua [3])	Activity (Poa annua [4])	Activity (Poa annua [5])	Activity (Poa annua [6])	Activity (Poa annua [7])	Activity (Poa annua [8])	Activity (Poa annua [9])	Activity (Poa annua [10])	Activity (Poa annua [11])	Activity (Poa annua [12])	Activity (Poa annua [13])	Activity (Poa annua [14])	Ratio [16]	IC50 (Photosystem Q(B) protein [17]) [nM]	IC50 (Photosystem Q(B) protein [18]) [nM]	further results
CCNc1nc(Cl)nc(NC(C)(C)C#N)n1	inactive	inactive	Active	inactive	inactive	inactive	inactive	Active	inactive	inactive	inactive	–	–	–	–	–	–	–
CCNc1nc(Cl)nc(NCC)n1	inactive	inactive	inactive	inactive	–	Active	inactive	Active	inactive	inactive	inactive	inactive	inactive	inactive	–	–	–	–
CCNc1nc(NCC)nc(SC)n1	inactive	inactive	–	inactive	Active	Active	inactive	–	inactive	inactive	inactive	–	–	–	–	–	–	Activity (Poa annua [15]): inactive
CSc1nc(NC(C)C)nc(NC(C)C)n1	inactive	inactive	–	inactive	–	Active	inactive	–	inactive	inactive	inactive	inactive	inactive	inactive	–	–	–	–
CCNc1nc(Cl)nc(NC(C)C)n1 [ATRAZINE]	inactive	inactive	Active	inactive	Active	Active	inactive	Active	inactive	inactive	inactive	–	inactive	inactive	> 625	160	> 100000	–
CN(C)C(=O)Nc1ccc(Cl)c(Cl)c1 [DCMU]	–	Active	Active	–	Active	Active	–	Active	–	inactive	–	Active	Active	Active	3.1	130	400	Activity (Poa annua [19]): Active; Activity (Poa annua [20]): inactive
CCC(C)c1cc([N+](=O)[O-])cc([N+](=O)[O-])c1O (centres undefined) [DINOSEB]	–	Active	–	–	Active	Active	–	–	–	inactive	–	Active	Active	Active	0.1	4000	400	Activity (Poa annua [20]): inactive; Activity (Poa annua [21]): inactive
O=c1[nH]c2c(c(=O)n1C1CCCCC1)CCC2 [LENACIL]	–	–	Active	inactive	–	Active	–	Active	inactive	inactive	–	inactive	inactive	inactive	20	1000	20000	–
